The values that follow come from PubChem BioAssay (NCI).

SMILES strings stand for the structures.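 Dose response: 5 concentrations. Exposure: 48 h. Format: 96-well plates. Endpoint: linear interpolation; highest concentration if not reached. GI50 is the concentration that inhibits growth by half. The concentration for full growth arrest is given as TGI.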

Common to all, as to assay: NCI tumour cell line growth inhibition, 48 h
The subject of experiment [1] is SK-MEL-28 melanoma.
For experiment [2], the system named is HS 578T breast.
The test system of experiment [3] is COLO 205 colon.
The test system of experiment [4] is PC-3 prostate.
Experiment [5] relates to SK-MEL-5 melanoma.
Experiment [6] has as its system OVCAR-8 ovarian.
The test system of experiment [7] is M14 melanoma.
For experiment [8], the system named is NCI-H226 lung.
The subject of experiment [9] is A549 NSCLC.
For experiment [10], the system named is MOLT-4 leukemia.

Take `COc1ccc(C(=O)CC(Cl)=C(Cl)Cl)cc1`: the GI50 is 16000 nM in experiment [1]; greater than 100000 nM in experiment [2]; 25600 nM in experiment [3]; 26.7 µM in [4]; 33800 nM in [5]; 33.2 µM in experiment [6]. The GI50 in experiment [7] is 27.5 µM; in experiment [8] it was 34100 nM; in [9], greater than 100 µM; in experiment [10] it was 19.7 µM. Further, the TGI in [1] was 37.2 µM; in experiment [2] it was greater than 100 µM; in experiment [3] it was 61.5 µM; in experiment [4] it was greater than 100 µM; in experiment [5], greater than 100 µM; in experiment [6], greater than 100 µM. Also, the TGI in [7] is 66.1 µM; in experiment [8], 85.7 µM; in experiment [9], greater than 100 µM; in experiment [10], 64.2 µM.
As to `COC(=O)c1cc2c([nH]c3ccccc32)c(-c2nc3cc(N(S(=O)(=O)c4ccc(C)cc4)S(=O)(=O)c4ccc(C)cc4)c(OC)cc3cc2CO)n1`, the GI50 in experiment [1] is greater than 100000 nM; in experiment [2], 30600 nM; in [3], greater than 100000 nM; in experiment [4], greater than 100 µM; in [5], greater than 100000 nM; in experiment [6], greater than 100 µM. Besides, the GI50 in [7] was greater than 100 µM; in experiment [8], greater than 100000 nM; in [9] it was greater than 100 µM; in [10], 10.6 µM. Moreover, the TGI in experiment [1], in experiment [2], in [3], in [4], in experiment [5] and in [6] was greater than 100 µM in each case. The TGI in experiment [7] is greater than 100 µM; in [8] it was greater than 100 µM; in experiment [9], greater than 100 µM; in experiment [10], 25.7 µM.
As for `Cc1nn(-c2ccccc2)c2ncc3c(c12)C(=O)N(Cc1ccccc1)C3=O`, the GI50 in experiment [1] is greater than 100000 nM; in experiment [2] it was 2980 nM; in [3] it was 4990 nM; in experiment [4], 10.1 µM; in experiment [5], greater than 100000 nM; in [6], 5.14 µM. Further, the GI50 in experiment [7] was 4.98 µM; in experiment [8], 3460 nM; in [9], 5.25 µM; in experiment [10], 6.77 µM. Further, the TGI in experiment [1], in experiment [2], in [3], in experiment [4], in experiment [5] and in experiment [6] was greater than 100 µM each time. Moreover, the TGI in experiment [7] is greater than 100 µM; in experiment [8], 13 µM; in [9] it was greater than 100 µM; in experiment [10], 40.3 µM.
For the molecule `COc1cc(C2C3=C(COC3=O)N(CCO)c3cc4c(cc32)CCC4)cc(OC)c1OC` (stereo not given), the GI50 in experiment [1] was 1240 nM; in experiment [2], 104 nM; in experiment [3] it was 65.1 nM; in experiment [4], 0.112 µM; in [5], 95.6 nM; in experiment [6], 0.118 µM. For the same molecule, the GI50 was 0.0672 µM in experiment [7], 417 nM in experiment [8], 0.13 µM in experiment [9] and 0.147 µM in experiment [10]. For the same molecule, the TGI in [1] was greater than 32.5 µM; in experiment [2], greater than 32.5 µM; in experiment [3], 0.148 µM; in experiment [4], greater than 32.5 µM; in [5], 0.451 µM; in experiment [6], greater than 32.5 µM. Moreover, the TGI was 0.199 µM in experiment [7], greater than 32.5 µM in experiment [8], greater than 32.5 µM in experiment [9] and greater than 32.5 µM in experiment [10].
For `Cn1cc(C2=C(c3cn(CCCSC(=N)N)c4ccccc34)C(=O)NC2=O)c2ccccc21`, the GI50 in experiment [1] is 1300 nM; in [2], 1910 nM; in experiment [3] it was 668 nM; in [4], 3.38 µM; in experiment [5] it was 1560 nM; in experiment [6], 4 µM. Moreover, the GI50 in experiment [7] is 3.56 µM; in experiment [8], 1490 nM; in experiment [9], 4.73 µM; in experiment [10] it was 1.93 µM. Moreover, the TGI in [1] was determined as 4.48 µM; in [2], 9.96 µM; in [3], 1.92 µM; in [4], 11.1 µM; in experiment [5] it was 4.27 µM; in experiment [6], 11.4 µM. Moreover, the TGI was determined as 7.77 µM in experiment [7], 7.29 µM in experiment [8], 12.9 µM in [9] and 8.08 µM in experiment [10].
`CCN(CC)CCC(CNc1c2ccc(Cl)cc2nc2ccc(OC)cc12)c1ccccc1` (stereo not given): the GI50 in experiment [1] was 1840 nM; in experiment [2] it was 1950 nM; in experiment [3] it was 1090 nM; in experiment [4], 1.96 µM; in experiment [5] it was 1700 nM; in experiment [6], 1.26 µM. Also, the GI50 in experiment [7] was 1.78 µM; in experiment [8], 1430 nM; in experiment [9], 1.51 µM; in [10], 0.486 µM. Besides, the TGI in experiment [1] was 3.27 µM; in experiment [2] it was 5.44 µM; in [3], 2.28 µM; in experiment [4] it was 6.16 µM; in experiment [5] it was 3.11 µM; in [6], 3.6 µM. The TGI worked out at 3.44 µM in experiment [7], 4.99 µM in experiment [8], 3.49 µM in experiment [9] and 5 µM in [10].
Take `CC[N+]1(C)CCC(O)(/C=C/c2ccccc2)C(C(=O)/C=C/c2ccccc2)C1` (stereo not given): the TGI was 18.9 µM in experiment [1]; greater than 100 µM in experiment [2]; 8.19 µM in experiment [3]; 29.6 µM in [4]; 32.7 µM in [5]; 43 µM in [6]. For the same molecule, the TGI in [7] was 25.8 µM; in experiment [8] it was 29.7 µM; in experiment [9], 45.7 µM; in experiment [10], 7.11 µM.
Take `CCCC1C2=C(C(=O)OC2=O)C2C(CC)CC3=C(C(=O)OC3=O)C12` (stereo not given): the TGI in experiment [1], in experiment [2], in experiment [3], in experiment [4], in experiment [5] and in experiment [6] was greater than 100 µM in each case. The TGI in experiment [7], in [8], in [9] and in [10] was greater than 100 µM throughout.
